Test results from PubChem BioAssay AID1963870 (Molecular Pharmacology Branch, DTP, NCI, 2024).

System: 292921-168-R-J2-PDC KRAS tumor spheroid viability
Test: Anticancer human tumor 292921-168-R-J2-PDC patient-derived pancreatic carcinoma cell line growth inhibition [KRAS2]
Conditions: spheroids with HUVEC and MSC; for IC50: curve of first compound; for viability, T/C: stronger effect = lower value; active = viability on the fitted dose curve at most 10% of control; inactive = the rest
Summary of the method: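 Combination screen of spheroid viability in tumor-cell co-cultures with endothelial (HUVEC) and mesenchymal stem cell stroma. Each agent was tested in half-log dilutions, topping at clinical Cmax or at 10 microM without a known Cmax.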
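Note: drug exposure lasted seven days after spheroids formed for three days.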
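Throughout, for viability, T/C: percent of DMSO vehicle control viability which is 100%.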

CN(C)C/C=C/C(=O)Nc1cc2c(Nc3ccc(F)c(Cl)c3)ncnc2cc1O[C@H]1CCOC1 + CC1OCC2(CCN(c3cnc(Sc4ccnc(N)c4Cl)c(N)n3)CC2)C1N
< 0.316 nM: IC50 (second compound 3.16 µM)
> 100 nM: IC50 (second compound 0.1 µM) | IC50 (second compound 1 µM) | IC50 (second compound 10 µM)
inactive: viability, T/C (second compound 0.1 µM, first compound 0.000316 µM) 82.2% | viability, T/C (second compound 0.1 µM, first compound 0.001 µM) 73.3% | viability, T/C (second compound 0.1 µM, first compound 0.00316 µM) 60.9% | viability, T/C (second compound 0.1 µM, first compound 0.01 µM) 64.3% | viability, T/C (second compound 0.1 µM, first compound 0.0316 µM) 57.5% | viability, T/C (second compound 0.1 µM, first compound 0.1 µM) 57.4% | viability, T/C (second compound 0.316 µM, first compound 0.000316 µM) 53.5% | viability, T/C (second compound 0.316 µM, first compound 0.001 µM) 48.3% | viability, T/C (second compound 0.316 µM, first compound 0.00316 µM) 46.9% | viability, T/C (second compound 0.316 µM, first compound 0.01 µM) 45.9% | viability, T/C (second compound 0.316 µM, first compound 0.0316 µM) 52.3% | viability, T/C (second compound 0.316 µM, first compound 0.1 µM) 46.1% | viability, T/C (second compound 1 µM, first compound 0.000316 µM) 92% | viability, T/C (second compound 1 µM, first compound 0.001 µM) 78% | viability, T/C (second compound 1 µM, first compound 0.00316 µM) 94% | viability, T/C (second compound 1 µM, first compound 0.01 µM) 88.6% | viability, T/C (second compound 1 µM, first compound 0.0316 µM) 93% | viability, T/C (second compound 1 µM, first compound 0.1 µM) 79.8% | viability, T/C (second compound 3.16 µM, first compound 0.000316 µM) 23.2% | viability, T/C (second compound 3.16 µM, first compound 0.001 µM) 25.3% | viability, T/C (second compound 3.16 µM, first compound 0.00316 µM) 28.8% | viability, T/C (second compound 3.16 µM, first compound 0.01 µM) 29.8% | viability, T/C (second compound 3.16 µM, first compound 0.0316 µM) 31.2% | viability, T/C (second compound 3.16 µM, first compound 0.1 µM) 33.2% | viability, T/C (second compound 10 µM, first compound 0.000316 µM) 50.8% | viability, T/C (second compound 10 µM, first compound 0.001 µM) 75.5% | viability, T/C (second compound 10 µM, first compound 0.00316 µM) 82.6% | viability, T/C (second compound 10 µM, first compound 0.01 µM) 88.3% | viability, T/C (second compound 10 µM, first compound 0.0316 µM) 91.5% | viability, T/C (second compound 10 µM, first compound 0.1 µM) 85.5%
0.889 nM: IC50 (second compound 0.316 µM)
